The term IC50 denotes the concentration that gives 50% inhibition.

Experimental findings from patent publication US20250340557A1, “PYRIMIDINE DERIVATIVE” (ASKA PHARMACEUTICAL CO., LTD., priority 2022, published 2025) are described below.

In this assay the target is T1, human mPGES-1 (Homo sapiens, UniProt O14684).
T1 construct: made in house; host or cells: COS-1 cells (transient transfection; microsomal fraction used as enzyme)
T1 sequence (O14684 1-152): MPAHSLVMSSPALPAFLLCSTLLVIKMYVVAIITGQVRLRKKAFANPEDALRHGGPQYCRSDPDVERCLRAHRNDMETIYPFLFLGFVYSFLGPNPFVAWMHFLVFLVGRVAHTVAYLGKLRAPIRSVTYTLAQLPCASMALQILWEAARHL
Put plainly: Test for mPGES-1 inhibitory activity (microsomal enzyme, PGE2 EIA). It counts as biochemical. The following applies: microsomes from COS-1 cells transfected with human mPGES-1 cDNA; substrate PGH2 1 μM; 4° C., 4 minutes; PGE2 measured by EIA; read-out: h mPGES1 IC50. The method in brief:
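Enzyme source was microsomes from COS-1 cells transiently expressing human mPGES-1, in sodium phosphate pH 7.2 with 2.5 mM GSH, 1 mM EDTA and 2% DMSO final. After a 15 min preincubation with compound at 4 °C, 1 μM PGH2 (final) reacted for 4 min at 4 °C.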
In the case of `Cc1nc(-c2c(C(F)(F)F)ccc(CNC(=O)C3CCN(c4cccc(C(F)(F)F)c4)CC3)c2F)[nH]c(=O)c1F` [Example 97, N-[2-fluoro-3-(5-fluoro-4-methyl-6-oxo-1,6-dihydropyrimidin-2-yl)-4-(trifluoromethyl)benzyl]-1-[3-(trifluoromethyl)phenyl]piperidine-4-carboxamide], the IC50 is < 1 nM.
With `CCc1cc(=O)[nH]c(-c2c(C(F)(F)F)ccc(CNC(=O)C3CCN(c4ccc(Cl)c(OC)c4)CC3)c2F)n1` [Example 98, 1-(4-chloro-3-methoxyphenyl)-N-[3-(4-ethyl-6-oxo-1,6-dihydropyrimidin-2-yl)-2-fluoro-4-(trifluoromethyl)benzyl]piperidine-4-carboxamide], the IC50 amounted to 19 nM.
The result for `O=c1cc(C(F)(F)F)nc(-c2c(C(F)(F)F)ccc(CNC(=O)[C@H]3CC[C@H](OCc4ccccc4Cl)CC3)c2F)[nH]1` [Example 99, trans-4-[(2-chlorobenzyl)oxy]-N-{2-fluoro-3-[6-oxo-4-(trifluoromethyl)-1,6-dihydropyrimidin-2-yl]-4-(trifluoromethyl)benzyl}cyclohexane-1-carboxamide] reads < 1 nM; that for `O=c1cc(C(F)(F)F)nc(-c2c(C(F)(F)F)ccc(CNC(=O)[C@H]3CC[C@H](OCc4cccc(Cl)c4)CC3)c2F)[nH]1` [Example 100, trans-4-[(3-chlorobenzyl)oxy]-N-{2-fluoro-3-[6-oxo-4-(trifluoromethyl)-1,6-dihydropyrimidin-2-yl]-4-(trifluoromethyl)benzyl}cyclohexane-1-carboxamide], < 1 nM; that for `O=c1cc(C(F)(F)F)nc(-c2c(C(F)(F)F)ccc(CNC(=O)[C@H]3CC[C@H](OCc4ccc(Cl)cc4)CC3)c2F)[nH]1` [Example 101, trans-4-[(4-chlorobenzyl)oxy]-N-{2-fluoro-3-[6-oxo-4-(trifluoromethyl)-1,6-dihydropyrimidin-2-yl]-4-(trifluoromethyl)benzyl}cyclohexane-1-carboxamide], < 1 nM.
The result for `Cc1nc(-c2c(C(F)(F)F)ccc(CNC(=O)[C@H]3CC[C@H](OCc4ccccc4Cl)CC3)c2F)[nH]c(=O)c1F` [Example 102, trans-4-[(2-chlorobenzyl)oxy]-N-[2-fluoro-3-(5-fluoro-4-methyl-6-oxo-1,6-dihydropyrimidin-2-yl)-4-(trifluoromethyl)benzyl]cyclohexane-1-carboxamide] reads < 1 nM; that for `O=c1cc(C(F)F)nc(-c2c(C(F)(F)F)ccc(CNC(=O)[C@H]3CC[C@H](OCc4ccccc4Cl)CC3)c2F)[nH]1` [Example 103, trans-4-[(2-chlorobenzyl)oxy]-N-{3-[4-(difluoromethyl)-6-oxo-1,6-dihydropyrimidin-2-yl]-2-fluoro-4-(trifluoromethyl)benzyl}cyclohexane-1-carboxamide], < 1 nM.
In the case of `Cc1nc(-c2c(C(F)(F)F)ccc(CNC(=O)[C@H]3CC[C@H](OCc4ccc(Cl)cc4)CC3)c2F)[nH]c(=O)c1F` [Example 104, trans-4-[(4-chlorobenzyl)oxy]-N-[2-fluoro-3-(5-fluoro-4-methyl-6-oxo-1,6-dihydropyrimidin-2-yl)-4-(trifluoromethyl)benzyl]cyclohexane-1-carboxamide] it was 1.2 nM; in that of `Cc1cc(=O)[nH]c(-c2c(C(F)(F)F)ccc(CNC(=O)[C@H]3CC[C@H](OCc4ccc(Cl)cc4)CC3)c2F)n1` [Example 105, trans-4-[(4-chlorobenzyl)oxy]-N-[2-fluoro-3-(4-methyl-6-oxo-1,6-dihydropyrimidin-2-yl)-4-(trifluoromethyl)benzyl]cyclohexane-1-carboxamide], 23 nM; in that of `Cc1cc(=O)[nH]c(-c2c(C(F)(F)F)ccc(CNC(=O)[C@H]3CC[C@H](OCc4ccc(F)c(F)c4)CC3)c2F)n1` [Example 107, trans-4-[(3,4-difluorobenzyl)oxy]-N-[2-fluoro-3-(4-methyl-6-oxo-1,6-dihydropyrimidin-2-yl)-4-(trifluoromethyl)benzyl]cyclohexane-1-carboxamide], 13 nM.
With `Cc1cc(=O)[nH]c(-c2c(C(F)(F)F)ccc(CNC(=O)[C@H]3CC[C@H](OCc4ccccc4Cl)CC3)c2F)n1` [Example 108, trans-4-[(2-chlorobenzyl)oxy]-N-[2-fluoro-3-(4-methyl-6-oxo-1,6-dihydropyrimidin-2-yl)-4-(trifluoromethyl)benzyl]cyclohexane-1-carboxamide], the IC50 worked out at 38 nM.
Regarding `Cc1cc(=O)[nH]c(-c2c(C(F)(F)F)ccc(CNC(=O)[C@H]3CC[C@H](OCc4cccc(C(F)(F)F)c4)CC3)c2F)n1` [Example 109, trans-N-[2-fluoro-3-(4-methyl-6-oxo-1,6-dihydropyrimidin-2-yl)-4-(trifluoromethyl)benzyl]-4-{[3-(trifluoromethyl)benzyl]oxy}cyclohexane-1-carboxamide], the IC50 worked out at 10 nM.
The result for `Cc1cc(=O)[nH]c(-c2c(C(F)(F)F)ccc(CNC(=O)[C@H]3CC[C@H](OCc4cccc(Cl)c4)CC3)c2F)n1` [Example 111, trans-4-[(3-chlorobenzyl)oxy]-N-[2-fluoro-3-(4-methyl-6-oxo-1,6-dihydropyrimidin-2-yl)-4-(trifluoromethyl)benzyl]cyclohexane-1-carboxamide] reads 19 nM; that for `O=c1cc(C(F)(F)F)nc(-c2c(C(F)(F)F)ccc(CNC(=O)[C@H]3CC[C@H](OCc4cccc(C(F)(F)F)c4)CC3)c2F)[nH]1` [Example 112, trans-N-{2-fluoro-3-[6-oxo-4-(trifluoromethyl)-1,6-dihydropyrimidin-2-yl]-4-(trifluoromethyl)benzyl}-4-{[3-(trifluoromethyl)benzyl]oxy}cyclohexane-1-carboxamide], 29 nM.
For the molecule `O=c1cc(C(F)(F)F)nc(-c2c(C(F)(F)F)ccc(CNC(=O)[C@H]3CC[C@H](OCc4ccc(F)cc4F)CC3)c2F)[nH]1` [Example 114, trans-4-[(2,4-difluorobenzyl)oxy]-N-{2-fluoro-3-[6-oxo-4-(trifluoromethyl)-1,6-dihydropyrimidin-2-yl]-4-(trifluoromethyl)benzyl}cyclohexane-1-carboxamide], the IC50 stood at 5.2 nM.
Take `O=c1cc(C(F)(F)F)nc(-c2c(C(F)(F)F)ccc(CNC(=O)[C@H]3CC[C@H](OCc4ccc(F)c(F)c4)CC3)c2F)[nH]1` [Example 115, trans-4-[(3,4-difluorobenzyl)oxy]-N-{2-fluoro-3-[6-oxo-4-(trifluoromethyl)-1,6-dihydropyrimidin-2-yl]-4-(trifluoromethyl)benzyl}cyclohexane-1-carboxamide]: the concentration for half-maximal inhibition (IC50) turned out to be 21 nM.
The result for `O=c1cc(C(F)F)nc(-c2c(C(F)(F)F)ccc(CNC(=O)[C@H]3CC[C@H](OCc4ccc(Cl)cc4)CC3)c2F)[nH]1` [Example 116, trans-4-[(4-chlorobenzyl)oxy]-N-{3-[4-(difluoromethyl)-6-oxo-1,6-dihydropyrimidin-2-yl]-2-fluoro-4-(trifluoromethyl)benzyl}cyclohexane-1-carboxamide] reads 10 nM; that for `O=c1cc(C(F)(F)F)nc(-c2c(C(F)(F)F)ccc(CNC(=O)[C@H]3CC[C@H](OCc4cc(F)cc(F)c4)CC3)c2F)[nH]1` [Example 117, trans-4-[(3,5-difluorobenzyl)oxy]-N-{2-fluoro-3-[6-oxo-4-(trifluoromethyl)-1,6-dihydropyrimidin-2-yl]-4-(trifluoromethyl)benzyl}cyclohexane-1-carboxamide], < 1 nM.
Regarding `O=c1cc(C(F)(F)F)nc(-c2c(C(F)(F)F)ccc(CNC(=O)[C@H]3CC[C@H](OCc4ccc(Cl)cc4F)CC3)c2F)[nH]1` [Example 118, trans-4-[(4-chloro-2-fluorobenzyl)oxy]-N-{2-fluoro-3-[6-oxo-4-(trifluoromethyl)-1,6-dihydropyrimidin-2-yl]-4-(trifluoromethyl)benzyl}cyclohexane-1-carboxamide], the IC50 is < 1 nM.
In the case of `O=c1cc(C(F)(F)F)nc(-c2c(C(F)(F)F)ccc(CNC(=O)[C@H]3CC[C@H](OCc4cc(F)cc(Cl)c4)CC3)c2F)[nH]1` [Example 119, trans-4-[(3-chloro-5-fluorobenzyl)oxy]-N-{2-fluoro-3-[6-oxo-4-(trifluoromethyl)-1,6-dihydropyrimidin-2-yl]-4-(trifluoromethyl)benzyl}cyclohexane-1-carboxamide] it was < 1 nM; in that of `Cc1cc(=O)[nH]c(-c2c(C(F)(F)F)ccc(CNC(=O)[C@H]3CC[C@H](OCc4cc(F)cc(F)c4)CC3)c2F)n1` [Example 120, trans-4-[(3,5-difluorobenzyl)oxy]-N-[2-fluoro-3-(4-methyl-6-oxo-1,6-dihydropyrimidin-2-yl)-4-(trifluoromethyl)benzyl]cyclohexane-1-carboxamide], 11 nM; in that of `Cc1cc(=O)[nH]c(-c2c(C(F)(F)F)ccc(CNC(=O)[C@H]3CC[C@H](OCc4ccc(Cl)cc4F)CC3)c2F)n1` [Example 121, trans-4-[(4-chloro-2-fluorobenzyl)oxy]-N-[2-fluoro-3-(4-methyl-6-oxo-1,6-dihydropyrimidin-2-yl)-4-(trifluoromethyl)benzyl]cyclohexane-1-carboxamide], < 1 nM.
As to `Cc1cc(=O)[nH]c(-c2c(C(F)(F)F)ccc(CNC(=O)[C@H]3CC[C@H](OCc4cc(F)cc(Cl)c4)CC3)c2F)n1` [Example 122, trans-4-[(3-chloro-5-fluorobenzyl)oxy]-N-[2-fluoro-3-(4-methyl-6-oxo-1,6-dihydropyrimidin-2-yl)-4-(trifluoromethyl)benzyl]cyclohexane-1-carboxamide], the IC50 is < 1 nM.
